Activity calls are given as the source filed them. The rule behind the calls is not given here.
Tests used:
[1] = Clearance in 129/SvEvBrd x C57BL/6 hybrid mouse at 1 mg/kg, iv; type: ADME, organism-based; design: dose 1 mg/kg, route intravenous; details: in vivo
[2] = Permeability across human Caco-2 cell membrane at 20 uM; type: ADME, cell-based; details: read-out: permeability
[3] = system: Mus musculus; test: Induction of lymphopenia in 129/SvEvBrd x C57BL/6 hybrid mouse assessed as change in circulating lymphocyte level at 100 mg/kg, po administered as single dose after 18 hrs by complete blood count analysis relative to control; type: functional
[4] = Half life in 129/SvEvBrd x C57BL/6 hybrid mouse; type: ADME, organism-based; details: in vivo
[5] = (§1) AUC (0 to infinity) in 129/SvEvBrd x C57BL/6 hybrid mouse at 10 mg/kg, po; type: ADME, organism-based, Plasma; design: time infinity, dose 10 mg/kg, route oral; details: 129/SvEvBrd x C57BL/6 hybrid, plasma
[6] = Cmax in 129/SvEvBrd x C57BL/6 hybrid mouse at 10 mg/kg; type: ADME, organism-based; design: dose 10 mg/kg; details: in vivo
[7] = target: T1, Sphingosine-1-phosphate lyase 1 (Mus musculus, UniProt Q8R0X7); test: Inhibition of sphingosine-1-phosphate lyase in mouse spleen by scintillation counting; type: tissue-based
T1 sequence (Q8R0X7 whole entry): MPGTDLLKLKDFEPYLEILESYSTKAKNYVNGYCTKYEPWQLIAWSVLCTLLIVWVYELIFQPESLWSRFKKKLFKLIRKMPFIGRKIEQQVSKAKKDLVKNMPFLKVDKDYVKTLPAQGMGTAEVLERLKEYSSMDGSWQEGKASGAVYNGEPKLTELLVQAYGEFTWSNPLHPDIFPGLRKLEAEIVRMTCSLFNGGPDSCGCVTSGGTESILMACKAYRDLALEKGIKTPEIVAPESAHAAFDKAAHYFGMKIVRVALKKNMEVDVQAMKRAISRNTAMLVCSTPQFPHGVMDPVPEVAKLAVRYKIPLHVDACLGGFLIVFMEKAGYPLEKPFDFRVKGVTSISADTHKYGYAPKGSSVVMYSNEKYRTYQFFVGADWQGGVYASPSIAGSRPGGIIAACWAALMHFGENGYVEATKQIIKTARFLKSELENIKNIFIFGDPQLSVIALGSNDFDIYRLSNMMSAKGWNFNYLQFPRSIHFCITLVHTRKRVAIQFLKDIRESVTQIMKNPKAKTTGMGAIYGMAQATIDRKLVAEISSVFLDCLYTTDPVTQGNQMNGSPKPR

[8] = Bioavailability in 129/SvEvBrd x C57BL/6 hybrid mouse at 10 mg/kg; type: ADME, organism-based; details: in vivo
[9] = Protein binding in 129/SvEvBrd x C57BL/6 hybrid mouse plasma at 10 mg/kg; type: ADME, organism-based; design: dose 10 mg/kg; details: read-out: PPB
[10] = system: Mus musculus; test: Induction of lymphopenia in 129/SvEvBrd x C57BL/6 hybrid mouse whole blood assessed as reduction in lymphocyte level at 100 mg/kg, po after 18 hrs by complete blood count analysis; type: functional, organism-based; design: dose 100 mg/kg
[11] = system: Mus musculus; test: Induction of lymphopenia in 129/SvEvBrd x C57BL/6 hybrid mouse whole blood assessed as reduction in lymphocyte level at 100 mg/kg, po after 4 hrs by complete blood count analysis; type: functional, organism-based; design: dose 100 mg/kg
[12] = AUC in 129/SvEvBrd x C57BL/6 hybrid mouse at 10 mg/kg; type: ADME, organism-based; design: dose 10 mg/kg; details: plasma
[13] = system: Mus musculus; test: Induction of lymphopenia in 129/SvEvBrd x C57BL/6 hybrid mouse assessed as reduction in lymphocyte level from peripheral circulation at 10 mg/kg by complete blood count analysis; type: functional; design: scale not given: the % may be the effect or the level left
[14] = (§2) Oral bioavailability in 129/SvEvBrd x C57BL/6 hybrid mouse at 1 mg/kg, iv and 10 mg/kg, po; type: ADME, organism-based; details: 129/SvEvBrd x C57BL/6 hybrid, in vivo
[15] = system: Mus musculus; test: as §2; type: ADME, organism-based; details: in vivo
[16] = system: Mus musculus; test: Induction of lymphopenia in 129/SvEvBrd x C57BL/6 hybrid mouse assessed as change in circulating lymphocyte level at 30 mg/kg, po administered as single dose after 18 hrs by complete blood count analysis relative to control; type: functional
[17] = system: Mus musculus; test: as §1; type: ADME, organism-based, Plasma; design: time infinity, dose 10 mg/kg, route oral; details: in vivo
[18] = Volume of distribution in 129/SvEvBrd x C57BL/6 hybrid mouse; type: ADME, organism-based; details: in vivo
[19] = Cmax in 129/SvEvBrd x C57BL/6 hybrid mouse; type: ADME, organism-based; details: in vivo
[20] = system: Mus musculus; test: Increase in sphingosine-1-phosphate level in mouse spleen at 100 mg/kg, po after 18 hrs by radioreceptor binding assay relative to control; type: functional
[21] = system: Mus musculus; test: Reduction in sphingosine-1-phosphate lyase activity in mouse spleen at 100 mg/kg, po after 18 hrs by radioreceptor binding assay; type: functional, organism-based; design: dose 100 mg/kg
[22] = Tmax in 129/SvEvBrd x C57BL/6 hybrid mouse; type: ADME, organism-based; details: in vivo
[23] = system: Mus musculus; test: Toxicity in 129/SvEvBrd x C57BL/6 hybrid mouse at 100 mg/kg, po; type: organism-based; design: dose 100 mg/kg, route oral; details: in vivo

Row | Structure (SMILES) | clearance [1] [mL/min/kg] | Papp at 20 µM [2] [×10⁻⁶ cm/s] | half-life [4] [h] | AUC(0-inf) [5] [µM·h] | bioavailability [14] [%] | Activity [3] [%] | further results
1 | OC[C@@H](O)[C@@H](O)[C@H](O)c1c[nH]c(-c2cocn2)n1 | 16.6 | 0.9 | 1.2 | 3.4 | – | 1 | –
2 | Nc1nc(N2CCCCC2)nc2c1c(=O)c(C(=O)NCc1ccc(-n3ccnc3)cc1)cn2CC1CCCO1 (centres undefined) | – | – | – | – | – | – | Cmax [6]: 451 µM; IC50 [7]: 2100 nM; bioavailability [8]: 100%; fraction unbound [9]: < 0.01; Activity [10]: Non-toxic; Activity [11]: Non-toxic; AUC [12]: 1870 µM·h
3 | CCCCCCCCc1ccc(CCC(N)(CO)CO)cc1 [FINGOLIMOD] | – | – | – | – | – | – | Activity [13]: 90%
4 | CC(=O)c1nc([C@@H](O)[C@H](O)[C@H](O)CO)cn1C | 5.7 | 5.57 | 2.4 | 41.1 | 33.6 | 10 | –
5 | OC[C@@H](O)[C@@H](O)[C@H](O)c1c[nH]c(-c2cscn2)n1 | 12.7 | – | 4.2 | 5.8 | 12 | -33 | –
6 | CN(C)C(=O)c1nc([C@@H](O)[C@H](O)[C@H](O)CO)c[nH]1 | – | 9.9 | 4 | – | – | – | F [15]: 5%; Activity [16]: -11%; AUC [17]: 6.7 µM·h
7 | OC[C@@H](O)[C@@H](O)[C@H](O)c1c[nH]c(-c2nc[nH]n2)n1 | – | 1 | – | – | – | 7 | –
8 | CC(=O)c1nc([C@@H](O)[C@H](O)[C@H](O)C(=O)N(C)C)c[nH]1 | 11.7 | 10.3 | 3.5 | 0.2 | 1 | -15 | –
9 | CC(O)c1nc([C@@H](O)[C@H](O)[C@H](O)CO)c[nH]1 (some centres undefined) | – | 4.1 | 4.4 | – | – | -15 | F [15]: 22%; AUC [17]: 44.5 µM·h

The next lines start with results.

Row | clearance [1] [mL/min/kg] | Papp at 20 µM [2] [×10⁻⁶ cm/s] | half-life [4] [h] | AUC(0-inf) [5] [µM·h] | bioavailability [14] [%] | Structure (SMILES) | Activity [3] [%] | further results
10 | 23.9 | 3.11 | 1.9 | 11.5 | 49.6 | CC(=O)c1nc([C@@H](O)[C@H](O)[C@H](O)CO)c(-c2ccccc2)[nH]1 | 40 | –
11 | 15.2 | 10.9 | 2.4 | 3 | 7 | OC[C@@H](O)[C@@H](O)[C@H](O)c1c[nH]c(-c2ncccn2)n1 | -26 | –
12 | 2.9 | 11 | 4.5 | 35.8 | 14 | CC(=O)c1nc([C@@H](O)[C@H](O)[C@H](O)CO)c[nH]1 | -41 | Vd [18]: 0.067 L/kg; Cmax [19]: 24.9 µM; fold change (FC) [20]: 22; Activity [21]: Active; Activity [16]: -25%; Tmax [22]: 0.5 h
13 | 7 | 9.37 | 6.2 | 10.8 | 11 | CC(=O)c1nc([C@@H](O)[C@H](O)[C@H](O)CO)c(C)[nH]1 | -5 | –
14 | – | 11.1 | 1 | 4.7 | – | CC(F)(F)c1nc([C@@H](O)[C@H](O)[C@H](O)CO)c[nH]1 | – | Activity [16]: -58%; Activity [23]: Toxic
15 | 19.4 | 19.9 | 2.1 | 6.9 | 23 | Cc1nc(-c2nc([C@@H](O)[C@H](O)[C@H](O)CO)c[nH]2)cs1 | 0 | –
16 | 6.7 | 13.1 | 6 | 18 | 17 | CC(=O)c1nc([C@H](O)[C@@H](O)[C@@H](O)CO)c[nH]1 | 0 | –

Reference: ChEMBL document CHEMBL1137009, “Inhibition of sphingosine-1-phosphate lyase for the treatment of autoimmune disorders” (J Med Chem, 2009)
